How the values were obtained:
[1] = Equilibrium solubility in aqueous solvents, concentration by HPLC; conditions: 25° C., mixing at least 12 hours, listed as dihydrochloric acid salt, dihydrochloride
Procedure: (§1) The sample concentration was then determined by HPLC using a single point calibration.

physchem = conditions: 25 °C, thermodynamic from solid
Procedure: as §1

[2] = 0.1 N aqueous HCl, simulated gastric fluid
[3] = pH 7.4 buffer, pH 7.4, aqueous buffer
[4] = pH 8.0 buffer, pH 8, aqueous buffer

SMILES | solubility in water [1] | solubility (physchem; [2]) [µg/mL] | solubility (physchem; [3]) [µg/mL] | solubility (physchem; [4]) [µg/mL] | solubility (physchem; water) [µg/mL]
CNC(=O)c1ccc(-c2cnc3ncc(Cc4ccc5ncccc5c4)n3n2)cc1F.Cl.Cl [Compound 21, 2-Fluoro-N-methyl-4-(7-(quinolin-6-ylmethyl)imidazo[1,2-b][1,2,4]triazin-2-yl)benzamide dihydrochloride] | approximately 4.5 mg/mL | ~24000 | 2 | 2 | ~4900
CNC(=O)c1ccc(-c2cnc3ncc(Cc4ccc5ncccc5c4)n3n2)cc1F.O=S(=O)(O)c1ccccc1.O=S(=O)(O)c1ccccc1 [dibenzenesulfonic acid salt, 2-Fluoro-N-methyl-4-[7-(quinolin-6-ylmethyl)imidazolo[1,2-b][1,2,4]triazin-2-yl]benzamide dibenzenesulfonic acid salt] | – | ≥ 29000 | 3 | 3 | ~3900

From patent publication US11452726B2, “Salts of 2-fluoro-N-methyl-4-[7-(quinolin-6-yl-methyl)-imidazo[1,2-b][1,2,4]triazin-2-yl]benzamide and processes related to preparing the same” (Incyte Corporation, priority 2008, dated 2022)
